# Results published in patent publication US20230085307A1, “PYRIDAZINONE COMPOUND AND HERBICIDE” (NISSAN CHEMICAL CORPORATION, priority 2019, published 2023).
# System: barnyard grass
# Test: Test Example 3: herbicidal effect by foliage application, Wagner pot (Table 18, symbol H)
# Format: in vivo, barnyard grass (Echinochloa crus-galli)
# Settings: 320 g/ha
# Procedure, shortened: (§1)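 Plants were sown in alluvial soil held under 0.1–0.5 cm standing water and grown 14 days in a greenhouse at 25–30 °C. An emulsifiable formulation, water-diluted to the set dose, was then sprayed onto the foliage, and effects were scored three weeks later using previously defined criteria.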
row,SMILES,herbicidal effect on barnyard grass (H)
1,CCCOc1ccc(-c2sc3c(Cl)cccc3c2-c2c(O)c(C)nn(C)c2=O)cc1 [4-027],5 (Herbicidal rate of 90% or more (almost completely withered))

# System: Chinese sprangletop
# Test: Test Example 3: herbicidal effect by foliage application, Wagner pot (Table 18, symbol D)
# Format: in vivo, chinese sprangletop (Leptochloa chinensis)
# Settings: 320 g/ha
# Procedure, shortened: as §1
row,SMILES,herbicidal effect on Chinese sprangletop (D)
1,CCCOc1ccc(-c2sc3c(Cl)cccc3c2-c2c(O)c(C)nn(C)c2=O)cc1 [4-027],0 (Herbicidal rate of 5% or less (almost no effect))

# System: rice flat sedge
# Test: Test Example 3: herbicidal effect by foliage application, Wagner pot (Table 18, symbol E)
# Format: in vivo, rice flat sedge (Cyperus iria)
# Settings: 320 g/ha
# Procedure, shortened: as §1
row,SMILES,herbicidal effect on rice flat sedge (E)
1,CCCOc1ccc(-c2sc3c(Cl)cccc3c2-c2c(O)c(C)nn(C)c2=O)cc1 [4-027],0 (Herbicidal rate of 5% or less (almost no effect))

# System: southern crabgrass
# Test: Test Example 4: herbicidal effect by soil treatment (Table 19, symbol F)
# Format: in vivo, southern crabgrass (Digitaria ciliaris)
# Settings: amount of applied herbicide 320 g/ha
# Procedure, shortened: (§2)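 Step 1: sow seeds in sterilized diluvial soil, cover ~1.5 cm. Step 2: spray diluted emulsion onto soil surface at predetermined rate. Step 3: greenhouse, 25–30° C, three weeks. Step 4: grade effect on each plant by earlier criteria.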
row,SMILES,"Herbicidal effect by soil treatment, F: southern crabgrass"
1,CCCOc1ccc(-c2sc3c(Cl)cccc3c2-c2c(O)c(C)nn(C)c2=O)cc1 [4-027],0 (Herbicidal rate of 5% or less (almost no effect))

# System: green foxtail
# Test: Test Example 4: herbicidal effect by soil treatment (Table 19, symbol G)
# Format: in vivo, green foxtail (Setaria viridis)
# Settings: amount of applied herbicide 320 g/ha
# Procedure, shortened: as §2
row,SMILES,"Herbicidal effect by soil treatment, G: green foxtail"
1,CCCOc1ccc(-c2sc3c(Cl)cccc3c2-c2c(O)c(C)nn(C)c2=O)cc1 [4-027],0 (Herbicidal rate of 5% or less (almost no effect))

# System: barnyard grass
# Test: Test Example 4: herbicidal effect by soil treatment (Table 19, symbol H)
# Format: in vivo, barnyard grass (Echinochloa crus-galli)
# Settings: amount of applied herbicide 320 g/ha
# Procedure, shortened: as §2
row,SMILES,"Herbicidal effect by soil treatment, H: barnyard grass"
1,CCCOc1ccc(-c2sc3c(Cl)cccc3c2-c2c(O)c(C)nn(C)c2=O)cc1 [4-027],0 (Herbicidal rate of 5% or less (almost no effect))

# System: wild oat
# Test: Test Example 4: herbicidal effect by soil treatment (Table 19, symbol I)
# Format: in vivo, wild oat (Avena fatua)
# Settings: amount of applied herbicide 320 g/ha
# Procedure, shortened: as §2
row,SMILES,"Herbicidal effect by soil treatment, I: wild oat"
1,CCCOc1ccc(-c2sc3c(Cl)cccc3c2-c2c(O)c(C)nn(C)c2=O)cc1 [4-027],0 (Herbicidal rate of 5% or less (almost no effect))

# System: blackgrass
# Test: Test Example 4: herbicidal effect by soil treatment (Table 19, symbol J)
# Format: in vivo, blackgrass (Alopecurus myosuroides)
# Settings: amount of applied herbicide 320 g/ha
# Procedure, shortened: as §2
row,SMILES,"Herbicidal effect by soil treatment, J: blackgrass"
1,CCCOc1ccc(-c2sc3c(Cl)cccc3c2-c2c(O)c(C)nn(C)c2=O)cc1 [4-027],0 (Herbicidal rate of 5% or less (almost no effect))

# System: Italian ryegrass
# Test: Test Example 4: herbicidal effect by soil treatment (Table 19, symbol K)
# Format: in vivo, Italian ryegrass (Lolium multiflorum)
# Settings: amount of applied herbicide 320 g/ha
# Procedure, shortened: as §2
row,SMILES,"Herbicidal effect by soil treatment, K: Italian ryegrass"
1,CCCOc1ccc(-c2sc3c(Cl)cccc3c2-c2c(O)c(C)nn(C)c2=O)cc1 [4-027],0 (Herbicidal rate of 5% or less (almost no effect))

# System: windgrass
# Test: Test Example 4: herbicidal effect by soil treatment (Table 19, symbol L)
# Format: in vivo, windgrass (Apera spica-venti)
# Settings: amount of applied herbicide 320 g/ha
# Procedure, shortened: as §2
row,SMILES,"Herbicidal effect by soil treatment, L: windgrass"
1,CCCOc1ccc(-c2sc3c(Cl)cccc3c2-c2c(O)c(C)nn(C)c2=O)cc1 [4-027],0 (Herbicidal rate of 5% or less (almost no effect))

# System: velvetleaf
# Test: Test Example 4: herbicidal effect by soil treatment (Table 19, symbol M)
# Format: in vivo, velvetleaf (Abutilon theophrasti)
# Settings: amount of applied herbicide 320 g/ha
# Procedure, shortened: as §2
row,SMILES,"Herbicidal effect by soil treatment, M: velvetleaf"
1,CCCOc1ccc(-c2sc3c(Cl)cccc3c2-c2c(O)c(C)nn(C)c2=O)cc1 [4-027],0 (Herbicidal rate of 5% or less (almost no effect))

# System: redroot pigweed
# Test: Test Example 4: herbicidal effect by soil treatment (Table 19, symbol N)
# Format: in vivo, redroot pigweed (Amaranthus retroflexus)
# Settings: amount of applied herbicide 320 g/ha
# Procedure, shortened: as §2
row,SMILES,"Herbicidal effect by soil treatment, N: redroot pigweed"
1,CCCOc1ccc(-c2sc3c(Cl)cccc3c2-c2c(O)c(C)nn(C)c2=O)cc1 [4-027],4 (Herbicidal rate of 70% or more and less than 90%)

# System: lambsquarters
# Test: Test Example 4: herbicidal effect by soil treatment (Table 19, symbol O)
# Format: in vivo, lambsquarters (Chenopodium album)
# Settings: amount of applied herbicide 320 g/ha
# Procedure, shortened: as §2
row,SMILES,"Herbicidal effect by soil treatment, O: lambsquarters"
1,CCCOc1ccc(-c2sc3c(Cl)cccc3c2-c2c(O)c(C)nn(C)c2=O)cc1 [4-027],2 (Herbicidal rate of 20% or more and less than 40%)

# System: chickweed
# Test: Test Example 4: herbicidal effect by soil treatment (Table 19, symbol P)
# Format: in vivo, common chickweed (Stellaria media)
# Settings: amount of applied herbicide 320 g/ha
# Procedure, shortened: as §2
row,SMILES,"Herbicidal effect by soil treatment, P: chickweed"
1,CCCOc1ccc(-c2sc3c(Cl)cccc3c2-c2c(O)c(C)nn(C)c2=O)cc1 [4-027],5 (Herbicidal rate of 90% or more (almost completely withered))

# System: persian speedwell
# Test: Test Example 4: herbicidal effect by soil treatment (Table 19, symbol R)
# Format: in vivo, Persian speedwell (Veronica persica)
# Settings: amount of applied herbicide 320 g/ha
# Procedure, shortened: as §2
row,SMILES,"Herbicidal effect by soil treatment, R: persian speedwell"
1,CCCOc1ccc(-c2sc3c(Cl)cccc3c2-c2c(O)c(C)nn(C)c2=O)cc1 [4-027],1 (Herbicidal rate of 5% or more and less than 20%)

# System: southern crabgrass
# Test: Test Example 5: herbicidal effect by foliage application, plastic box (Table 20, symbol F)
# Format: in vivo, southern crabgrass (Digitaria ciliaris)
# Settings: 320 g/ha, foliage application after 14-day growth, evaluated three weeks after application
# Procedure, shortened: (§3)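 Foliar spray test: emulsion formulation diluted in water to a set application rate, sprayed onto 14-day-old plants raised in diluvial soil at 25° C to 30° C under glass. Both herbicidal effect and crop effect rated visually three weeks later.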
row,SMILES,herbicidal effect on F: southern crabgrass (evaluation grade 0-5)
1,CCCOc1ccc(-c2sc3c(Cl)cccc3c2-c2c(O)c(C)nn(C)c2=O)cc1 [4-027],0 (Herbicidal rate of 5% or less (almost no effect))

# System: green foxtail
# Test: Test Example 5: herbicidal effect by foliage application, plastic box (Table 20, symbol G)
# Format: in vivo, green foxtail (Setaria viridis)
# Settings: 320 g/ha, foliage application after 14-day growth, evaluated three weeks after application
# Procedure, shortened: as §3
row,SMILES,herbicidal effect on G: green foxtail (evaluation grade 0-5)
1,CCCOc1ccc(-c2sc3c(Cl)cccc3c2-c2c(O)c(C)nn(C)c2=O)cc1 [4-027],0 (Herbicidal rate of 5% or less (almost no effect))

# System: barnyard grass
# Test: Test Example 5: herbicidal effect by foliage application, plastic box (Table 20, symbol H)
# Format: in vivo, barnyard grass (Echinochloa crus-galli)
# Settings: 320 g/ha, foliage application after 14-day growth, evaluated three weeks after application
# Procedure, shortened: as §3
row,SMILES,herbicidal effect on H: barnyard grass (evaluation grade 0-5)
1,CCCOc1ccc(-c2sc3c(Cl)cccc3c2-c2c(O)c(C)nn(C)c2=O)cc1 [4-027],4 (Herbicidal rate of 70% or more and less than 90%)

# System: wild oat
# Test: Test Example 5: herbicidal effect by foliage application, plastic box (Table 20, symbol I)
# Format: in vivo, wild oat (Avena fatua)
# Settings: 320 g/ha, foliage application after 14-day growth, evaluated three weeks after application
# Procedure, shortened: as §3
row,SMILES,herbicidal effect on I: wild oat (evaluation grade 0-5)
1,CCCOc1ccc(-c2sc3c(Cl)cccc3c2-c2c(O)c(C)nn(C)c2=O)cc1 [4-027],0 (Herbicidal rate of 5% or less (almost no effect))

# System: blackgrass
# Test: Test Example 5: herbicidal effect by foliage application, plastic box (Table 20, symbol J)
# Format: in vivo, blackgrass (Alopecurus myosuroides)
# Settings: 320 g/ha, foliage application after 14-day growth, evaluated three weeks after application
# Procedure, shortened: as §3
row,SMILES,herbicidal effect on J: blackgrass (evaluation grade 0-5)
1,CCCOc1ccc(-c2sc3c(Cl)cccc3c2-c2c(O)c(C)nn(C)c2=O)cc1 [4-027],3 (Herbicidal rate of 40% or more and less than 70%)

# System: Italian ryegrass
# Test: Test Example 5: herbicidal effect by foliage application, plastic box (Table 20, symbol K)
# Format: in vivo, Italian ryegrass (Lolium multiflorum)
# Settings: 320 g/ha, foliage application after 14-day growth, evaluated three weeks after application
# Procedure, shortened: as §3
row,SMILES,herbicidal effect on K: Italian ryegrass (evaluation grade 0-5)
1,CCCOc1ccc(-c2sc3c(Cl)cccc3c2-c2c(O)c(C)nn(C)c2=O)cc1 [4-027],1 (Herbicidal rate of 5% or more and less than 20%)

# System: windgrass
# Test: Test Example 5: herbicidal effect by foliage application, plastic box (Table 20, symbol L)
# Format: in vivo, windgrass (Apera spica-venti)
# Settings: 320 g/ha, foliage application after 14-day growth, evaluated three weeks after application
# Procedure, shortened: as §3
row,SMILES,herbicidal effect on L: windgrass (evaluation grade 0-5)
1,CCCOc1ccc(-c2sc3c(Cl)cccc3c2-c2c(O)c(C)nn(C)c2=O)cc1 [4-027],3 (Herbicidal rate of 40% or more and less than 70%)

# System: velvetleaf
# Test: Test Example 5: herbicidal effect by foliage application, plastic box (Table 20, symbol M)
# Format: in vivo, velvetleaf (Abutilon theophrasti)
# Settings: 320 g/ha, foliage application after 14-day growth, evaluated three weeks after application
# Procedure, shortened: as §3
row,SMILES,herbicidal effect on M: velvetleaf (evaluation grade 0-5)
1,CCCOc1ccc(-c2sc3c(Cl)cccc3c2-c2c(O)c(C)nn(C)c2=O)cc1 [4-027],4 (Herbicidal rate of 70% or more and less than 90%)

# System: redroot pigweed
# Test: Test Example 5: herbicidal effect by foliage application, plastic box (Table 20, symbol N)
# Format: in vivo, redroot pigweed (Amaranthus retroflexus)
# Settings: 320 g/ha, foliage application after 14-day growth, evaluated three weeks after application
# Procedure, shortened: as §3
row,SMILES,herbicidal effect on N: redroot pigweed (evaluation grade 0-5)
1,CCCOc1ccc(-c2sc3c(Cl)cccc3c2-c2c(O)c(C)nn(C)c2=O)cc1 [4-027],5 (Herbicidal rate of 90% or more (almost completely withered))

# System: lambsquarters
# Test: Test Example 5: herbicidal effect by foliage application, plastic box (Table 20, symbol O)
# Format: in vivo, lambsquarters (Chenopodium album)
# Settings: 320 g/ha, foliage application after 14-day growth, evaluated three weeks after application
# Procedure, shortened: as §3
row,SMILES,herbicidal effect on O: lambsquarters (evaluation grade 0-5)
1,CCCOc1ccc(-c2sc3c(Cl)cccc3c2-c2c(O)c(C)nn(C)c2=O)cc1 [4-027],5 (Herbicidal rate of 90% or more (almost completely withered))

# System: chickweed
# Test: Test Example 5: herbicidal effect by foliage application, plastic box (Table 20, symbol P)
# Format: in vivo, common chickweed (Stellaria media)
# Settings: 320 g/ha, foliage application after 14-day growth, evaluated three weeks after application
# Procedure, shortened: as §3
row,SMILES,herbicidal effect on P: chickweed (evaluation grade 0-5)
1,CCCOc1ccc(-c2sc3c(Cl)cccc3c2-c2c(O)c(C)nn(C)c2=O)cc1 [4-027],5 (Herbicidal rate of 90% or more (almost completely withered))

# System: persian speedwell
# Test: Test Example 5: herbicidal effect by foliage application, plastic box (Table 20, symbol R)
# Format: in vivo, Persian speedwell (Veronica persica)
# Settings: 320 g/ha, foliage application after 14-day growth, evaluated three weeks after application
# Procedure, shortened: as §3
row,SMILES,herbicidal effect on R: persian speedwell (evaluation grade 0-5)
1,CCCOc1ccc(-c2sc3c(Cl)cccc3c2-c2c(O)c(C)nn(C)c2=O)cc1 [4-027],5 (Herbicidal rate of 90% or more (almost completely withered))
